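Growth conditions: 96-well plates. Treatment: test compound, 48 hours, 5 concentrations. Analysis: linear interpolation between bracketing concentrations; unreached endpoints set to highest concentration. TGI: total growth inhibition.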
Assays:
Test in all cases: DTP human tumour cell line panel, 48 h
DU-145 prostate = test system: DU-145 prostate
HS 578T breast = test system: HS 578T breast
SN12C renal = test system: SN12C renal
UACC-257 melanoma = test system: UACC-257 melanoma
NCI/ADR-RES ovarian = test system: NCI/ADR-RES ovarian
UACC-62 melanoma = test system: UACC-62 melanoma
SNB-75 CNS = test system: SNB-75 CNS
HCT-15 colon = test system: HCT-15 colon
T-47D breast = test system: T-47D breast
SR leukemia = test system: SR leukemia
OVCAR-4 ovarian = test system: OVCAR-4 ovarian
K-562 leukemia = test system: K-562 leukemia
KM12 colon = test system: KM12 colon
SF-539 CNS = test system: SF-539 CNS
OVCAR-5 ovarian = test system: OVCAR-5 ovarian
CAKI-1 renal = test system: CAKI-1 renal
HT29 colon = test system: HT29 colon
UO-31 renal = test system: UO-31 renal
RXF 393 renal = test system: RXF 393 renal
NCI-H460 lung = test system: NCI-H460 lung
SK-OV-3 ovarian = test system: SK-OV-3 ovarian
MDA-MB-231 breast = test system: MDA-MB-231 breast
MOLT-4 leukemia = test system: MOLT-4 leukemia
SF-268 CNS = test system: SF-268 CNS
EKVX NSCLC = test system: EKVX NSCLC
HCT-116 colon = test system: HCT-116 colon
HL-60(TB) leukemia = test system: HL-60(TB) leukemia
MCF7 breast = test system: MCF7 breast
NCI-H522 lung = test system: NCI-H522 lung
CCRF-CEM leukemia = test system: CCRF-CEM leukemia
OVCAR-3 ovarian = test system: OVCAR-3 ovarian
MDA-MB-435 = test system: MDA-MB-435
NCI-H23 lung = test system: NCI-H23 lung
BT-549 breast = test system: BT-549 breast
ACHN renal = test system: ACHN renal
SK-MEL-2 melanoma = test system: SK-MEL-2 melanoma
U251 CNS = test system: U251 CNS
OVCAR-8 ovarian = test system: OVCAR-8 ovarian
SK-MEL-5 melanoma = test system: SK-MEL-5 melanoma
M14 melanoma = test system: M14 melanoma
COLO 205 colon = test system: COLO 205 colon
SW-620 colon = test system: SW-620 colon
SF-295 CNS = test system: SF-295 CNS
IGROV1 ovarian = test system: IGROV1 ovarian
A549 NSCLC = test system: A549 NSCLC
HCC-2998 colon = test system: HCC-2998 colon
RPMI-8226 leukemia = test system: RPMI-8226 leukemia
SNB-19 CNS = test system: SNB-19 CNS
TK-10 renal = test system: TK-10 renal
HOP-92 NSCLC = test system: HOP-92 NSCLC
SK-MEL-28 melanoma = test system: SK-MEL-28 melanoma

CCOC(=O)/C(=N/Nc1ccc(C)cc1)N1C(=S)C=C(C)NN(C)C1=S
TGI (DU-145 prostate): > 100 µM
TGI (HS 578T breast): > 100 µM
TGI (SN12C renal): > 100 µM
TGI (UACC-257 melanoma): > 100 µM
TGI (NCI/ADR-RES ovarian): > 100 µM
TGI (UACC-62 melanoma): > 100 µM
TGI (SNB-75 CNS): > 100 µM
TGI (HCT-15 colon): > 100 µM
TGI (T-47D breast): > 100 µM
TGI (SR leukemia): > 100 µM
TGI (OVCAR-4 ovarian): > 100 µM
TGI (K-562 leukemia): > 100 µM
TGI (KM12 colon): > 100 µM
TGI (SF-539 CNS): > 100 µM
TGI (OVCAR-5 ovarian): > 100 µM
TGI (CAKI-1 renal): > 100 µM
TGI (HT29 colon): > 100 µM
TGI (UO-31 renal): > 100 µM
TGI (RXF 393 renal): 83.7 µM
TGI (NCI-H460 lung): > 100 µM
TGI (SK-OV-3 ovarian): > 100 µM
TGI (MDA-MB-231 breast): > 100 µM
TGI (MOLT-4 leukemia): > 100 µM
TGI (SF-268 CNS): > 100 µM
TGI (EKVX NSCLC): > 100 µM
TGI (HCT-116 colon): > 100 µM
TGI (HL-60(TB) leukemia): > 100 µM
TGI (MCF7 breast): > 100 µM
TGI (NCI-H522 lung): > 100 µM
TGI (CCRF-CEM leukemia): > 100 µM
TGI (OVCAR-3 ovarian): > 100 µM
TGI (MDA-MB-435): > 100 µM
TGI (NCI-H23 lung): > 100 µM
TGI (BT-549 breast): > 100 µM
TGI (ACHN renal): > 100 µM
TGI (SK-MEL-2 melanoma): > 100 µM
TGI (U251 CNS): 55.5 µM
TGI (OVCAR-8 ovarian): > 100 µM
TGI (SK-MEL-5 melanoma): > 100 µM
TGI (M14 melanoma): > 100 µM
TGI (COLO 205 colon): > 100 µM
TGI (SW-620 colon): > 100 µM
TGI (SF-295 CNS): 39.3 µM
TGI (IGROV1 ovarian): > 100 µM
TGI (A549 NSCLC): > 100 µM
TGI (HCC-2998 colon): > 100 µM
TGI (RPMI-8226 leukemia): > 100 µM
TGI (SNB-19 CNS): > 100 µM
TGI (TK-10 renal): > 100 µM
TGI (HOP-92 NSCLC): > 100 µM
TGI (SK-MEL-28 melanoma): > 100 µM
